According to patent US8669257B2, “Phenazine derivatives and uses thereof as potassium channel modulators” (The Johns Hopkins University, priority 2007, dated 2014):
“Also recorded” adds a separate entry of the source. Read-outs that look alike come from different tables or passages of the source.

Tests used:
NFAT luciferase reporter = NFAT luciferase reporter assay in Jurkat T-cells; format: cell-based; settings: Homo sapiens, PMA/ionomycin, FIG. 1C, n=6
AP-1 luciferase reporter = AP-1 luciferase reporter assay in Jurkat T-cells; format: cell-based, human; settings: PMA/ionomycin, high concentrations (>1 μM for clofazimine)
[1] = system: EGFP-NFATc3 nuclear translocation; test: NFAT nuclear translocation in Jurkat T-cells stimulated by ionomycin; format: cell-based, human; settings: 1 μM ionomycin
[2] = target: T1, calcineurin-NFATc2 interaction (Homo sapiens, UniProt P16298+Q13469, H160N); test: Mammalian two-hybrid assay of calcineurin and NFATc2 in Jurkat T-cells; format: cell-based
T1 construct: calcineurinA (1-400, H160N) and NFATc2 (1-415) in Jurkat T-cells; expressed in transfected cells; host or cells: Jurkat T-cells
T1 sequence (Q13469 1-415): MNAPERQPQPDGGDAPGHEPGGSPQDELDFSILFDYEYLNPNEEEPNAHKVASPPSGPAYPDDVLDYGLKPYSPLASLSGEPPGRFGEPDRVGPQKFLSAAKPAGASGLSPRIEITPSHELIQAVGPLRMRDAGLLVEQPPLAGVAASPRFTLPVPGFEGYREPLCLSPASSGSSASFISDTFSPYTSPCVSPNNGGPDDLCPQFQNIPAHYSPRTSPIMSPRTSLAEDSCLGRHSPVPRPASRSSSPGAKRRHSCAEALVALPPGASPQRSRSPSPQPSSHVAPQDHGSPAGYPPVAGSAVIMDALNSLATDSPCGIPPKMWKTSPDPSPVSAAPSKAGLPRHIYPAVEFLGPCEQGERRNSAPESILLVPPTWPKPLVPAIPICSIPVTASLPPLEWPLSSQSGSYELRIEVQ

[3] = system: calcium oscillation in Jurkat T-cells; test: Calcium oscillation in Jurkat T-cells (10 nM TG); format: cell-based, human; settings: for cells with elongated calcium oscillation period: 10 nM TG, Jurkat T-cells
Experimental: JurkaT-cells were attached to L-lysine-coated glass dishes (MatTek). Cells were loaded with fura-2-AM (Invitrogen_F-1201) for 45 min before they were washed sequentially with growth medium and Ca^2+-free HBSS. Fluorescence excitation wavelengths were set at 350 and 380 nm, respectively, on a Zeiss Axiovert 200M microscope while emission wavelength was set at 510 nm. Changes in intracellular calcium concentrations were determined by fluorescence intensity ratio ([…]/F380).

mouse Kv1.3 = target: T2, mouse Kv1.3 (Mus musculus, UniProt P16390); test: Patch-clamp of heterologous mouse Kv1.3 expressed in L929 cells; format: cell-based
T2 construct: expressed in transfected cells; host or cells: L929 cells
T2 sequence (P16390 whole entry): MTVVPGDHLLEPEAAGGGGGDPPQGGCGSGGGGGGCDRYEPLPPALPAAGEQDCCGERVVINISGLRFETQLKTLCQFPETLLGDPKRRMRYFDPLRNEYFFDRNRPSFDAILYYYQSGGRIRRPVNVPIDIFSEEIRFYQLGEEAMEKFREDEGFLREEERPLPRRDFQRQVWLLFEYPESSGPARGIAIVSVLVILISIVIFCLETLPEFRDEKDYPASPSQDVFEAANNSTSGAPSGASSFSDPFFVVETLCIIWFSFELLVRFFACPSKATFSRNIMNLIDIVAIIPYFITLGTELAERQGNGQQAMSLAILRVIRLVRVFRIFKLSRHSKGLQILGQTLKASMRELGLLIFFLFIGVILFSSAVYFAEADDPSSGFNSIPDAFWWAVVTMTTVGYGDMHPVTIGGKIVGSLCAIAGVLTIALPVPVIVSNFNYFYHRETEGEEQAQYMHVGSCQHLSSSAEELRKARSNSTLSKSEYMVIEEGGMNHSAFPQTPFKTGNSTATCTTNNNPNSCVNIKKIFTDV
Experimental: (§1) Patch pipettes, pulled from glass capillaries (inner diameter 1.5 mm, Kimble products) with a horizontal puller (Sutter instruments, Modell P-97), were fire-polished, and had resistances between 2 and 4 MOhm. Patch-clamp experiments were performed in the tight-seal whole-cell configuration at room temperature (22-24° C.). High-resolution current recordings were acquired by a computer-based patch-clamp amplifier system (EPC-9, HEKA). Immediately following establishment of the whole-cell configuration, every two seconds voltage ramps of 50 ms duration spanning the voltage range of −100 to +100 mV for Jurkat T-cells and −150 to +150 mV for HEK293 were delivered from a holding potential (Vh) of −70 mV for Jurkats and 0 mV for HEK293 cells over a period of 300-600 s. […] Capacitive currents and series resistance were determined and corrected before each voltage ramp using the automatic capacitance compensation of the EPC-9. […] Kv1.3 currents in Jurkat T-cells were measured at +80 mV. Heterologously expressed Kv1.1, Kv1.2, Kv1.3, Kv1.5 and Kv3.1 were assessed at +80 mV except in Figure S7, where currents were additionally measured at the more physiological voltage of 0 mV. CRAC currents in HEK293 cells were assessed at −80 mV. […]

mouse Kv1.1 = target: T3, mouse Kv1.1 (Mus musculus, UniProt P16388); test: Patch-clamp of mouse Kv1.1 stably expressed in L929 cells; format: cell-based
T3 construct: expressed in transfected cells; host or cells: L929 cells
T3 sequence (P16388 whole entry): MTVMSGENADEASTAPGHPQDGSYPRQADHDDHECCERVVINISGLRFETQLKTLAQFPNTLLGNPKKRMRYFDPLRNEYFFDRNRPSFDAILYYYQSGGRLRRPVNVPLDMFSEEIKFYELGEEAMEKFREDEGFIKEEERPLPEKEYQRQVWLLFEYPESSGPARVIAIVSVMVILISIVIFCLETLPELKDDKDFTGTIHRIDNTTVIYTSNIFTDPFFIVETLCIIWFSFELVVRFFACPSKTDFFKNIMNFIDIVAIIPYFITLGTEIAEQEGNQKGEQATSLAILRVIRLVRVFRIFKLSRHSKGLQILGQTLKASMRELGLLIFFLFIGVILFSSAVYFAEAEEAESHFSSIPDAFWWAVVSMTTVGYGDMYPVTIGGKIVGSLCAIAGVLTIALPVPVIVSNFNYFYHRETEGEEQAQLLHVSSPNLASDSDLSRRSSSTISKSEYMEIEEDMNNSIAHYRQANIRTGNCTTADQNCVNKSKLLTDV
Experimental: as §1

[4] = target: calcium-activated IKCa1 potassium channel (Homo sapiens, UniProt O15554); test: Activity of IKCa1 channel (data not shown); format: cell-based; settings: up to 10 μM
Sequence of calcium-activated IKCa1 potassium channel (O15554 whole entry): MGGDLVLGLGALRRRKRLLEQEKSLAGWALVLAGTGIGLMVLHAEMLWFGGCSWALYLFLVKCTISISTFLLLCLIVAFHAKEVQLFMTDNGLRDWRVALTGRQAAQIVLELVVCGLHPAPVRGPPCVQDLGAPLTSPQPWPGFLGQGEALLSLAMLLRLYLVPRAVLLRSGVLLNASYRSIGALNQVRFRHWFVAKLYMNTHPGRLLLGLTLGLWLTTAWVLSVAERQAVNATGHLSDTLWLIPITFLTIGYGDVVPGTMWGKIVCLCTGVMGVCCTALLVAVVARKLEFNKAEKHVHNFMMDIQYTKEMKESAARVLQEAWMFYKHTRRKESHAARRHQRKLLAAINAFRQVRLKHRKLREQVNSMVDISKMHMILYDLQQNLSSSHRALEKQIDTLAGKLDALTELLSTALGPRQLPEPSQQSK

TRPM4 channel = TRPM4 channel (Homo sapiens, UniProt Q8TD43); test: Activity of TRPM4 channel (data not shown); format: cell-based; settings: up to 10 μM
Sequence of TRPM4 channel (Q8TD43 whole entry): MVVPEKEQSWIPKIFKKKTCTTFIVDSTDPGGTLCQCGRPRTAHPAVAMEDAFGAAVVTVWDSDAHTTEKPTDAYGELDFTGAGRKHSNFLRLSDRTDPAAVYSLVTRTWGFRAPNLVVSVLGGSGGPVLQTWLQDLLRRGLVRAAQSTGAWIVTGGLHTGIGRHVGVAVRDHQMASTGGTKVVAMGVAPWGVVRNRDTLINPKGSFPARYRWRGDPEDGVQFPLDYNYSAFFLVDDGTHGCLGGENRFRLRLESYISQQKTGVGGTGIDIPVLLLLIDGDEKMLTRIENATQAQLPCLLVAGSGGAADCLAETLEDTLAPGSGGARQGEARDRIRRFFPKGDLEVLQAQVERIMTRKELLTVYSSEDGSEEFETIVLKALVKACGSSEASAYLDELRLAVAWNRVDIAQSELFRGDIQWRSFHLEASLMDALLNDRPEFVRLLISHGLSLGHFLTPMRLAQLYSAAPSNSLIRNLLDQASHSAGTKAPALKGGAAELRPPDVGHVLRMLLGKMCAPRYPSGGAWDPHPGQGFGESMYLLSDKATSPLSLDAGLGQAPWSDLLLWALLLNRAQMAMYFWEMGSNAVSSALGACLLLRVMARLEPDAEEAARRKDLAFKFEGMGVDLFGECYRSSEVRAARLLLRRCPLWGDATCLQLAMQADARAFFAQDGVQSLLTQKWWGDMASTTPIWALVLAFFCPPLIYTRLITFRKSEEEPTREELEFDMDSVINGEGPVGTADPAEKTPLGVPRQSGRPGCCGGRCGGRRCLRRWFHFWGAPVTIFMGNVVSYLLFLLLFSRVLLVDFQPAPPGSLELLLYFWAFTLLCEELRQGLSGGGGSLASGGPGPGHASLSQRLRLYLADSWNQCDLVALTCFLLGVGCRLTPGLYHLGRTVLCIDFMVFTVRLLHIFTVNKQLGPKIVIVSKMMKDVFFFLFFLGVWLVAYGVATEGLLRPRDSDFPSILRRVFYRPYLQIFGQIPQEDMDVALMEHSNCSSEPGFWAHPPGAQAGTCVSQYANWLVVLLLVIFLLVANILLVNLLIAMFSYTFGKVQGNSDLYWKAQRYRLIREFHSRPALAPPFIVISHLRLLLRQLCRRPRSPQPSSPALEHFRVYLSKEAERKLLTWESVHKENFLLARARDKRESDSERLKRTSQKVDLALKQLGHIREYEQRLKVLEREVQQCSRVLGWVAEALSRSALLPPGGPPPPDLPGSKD

Kv1.3 = target: T4, Kv1.3 (Homo sapiens, UniProt P22001); test: Immunofluorescence colocalization in Jurkat T-cells; format: cell-based; settings: plasma membrane of Jurkat T-cells
T4 construct: endogenous in cells; host or cells: Jurkat T-cells
T4 sequence (P22001 whole entry): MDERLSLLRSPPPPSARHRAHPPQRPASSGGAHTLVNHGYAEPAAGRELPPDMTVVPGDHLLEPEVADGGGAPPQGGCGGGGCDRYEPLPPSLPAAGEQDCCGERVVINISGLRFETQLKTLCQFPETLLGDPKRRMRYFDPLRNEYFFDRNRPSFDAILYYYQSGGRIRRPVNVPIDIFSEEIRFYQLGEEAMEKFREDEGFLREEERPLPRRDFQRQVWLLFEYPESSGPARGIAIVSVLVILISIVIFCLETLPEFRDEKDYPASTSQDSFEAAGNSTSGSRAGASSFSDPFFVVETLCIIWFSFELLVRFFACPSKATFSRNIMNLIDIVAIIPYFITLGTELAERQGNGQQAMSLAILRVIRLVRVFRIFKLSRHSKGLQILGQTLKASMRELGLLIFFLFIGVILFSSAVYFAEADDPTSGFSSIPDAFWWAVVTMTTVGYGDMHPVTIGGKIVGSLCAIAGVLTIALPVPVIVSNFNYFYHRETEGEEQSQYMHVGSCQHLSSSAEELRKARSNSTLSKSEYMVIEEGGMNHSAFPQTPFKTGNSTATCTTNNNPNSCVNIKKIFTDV
Experimental: Jurkat T-cells treated with clofazimine were centrifuged onto L-lysine-coated coverslips. Cells were fixed with 4% p-formaldehyde for 15 min. The cells were washed in PBS, permeabilized by −20° C. methanol and blocked with 10% donkey serum in PBS. The fixed cells were then incubated with Kv1.3 primary antibody (sc-17239 at 1:100 dilution) for 1 h. Cells were washed in PBS (3×5 min) and incubated with donkey anti-goat Cy5 antibodies for an additional 1 h. Cells were then washed three times in PBS, mounted, and photographed. Mounting was performed using Vectashield mounting medium (Vector Laboratories) and images were captured using either a Zeiss LSM510 confocal microscope. Merged images were compiled using LSM5 Image Examiner or Adobe Photoshop CS.

murine skin transplant = test: Mouse skin transplantation with adoptive transfer of murine cells (parallel experiment); format: in vivo; settings: murine skin and total murine T-cells
Description: FIG. 5. […] (A) Representative skin grafts at different days post-transplantation. Human foreskin was transplanted onto Pfp/Rag2−/− mice. 1.0×10^8 human peripheral blood lymphocytes (PBL) were adoptively transferred into each animal at Day 7 post-transplantation. Administration of clofazimine or carrier control (olive oil) was also initiated at Day 7. * Days after skin transplantation/cell transfer. (B) Effect of clofazimine on the mean survival time of transplanted human (n=5) and mouse (n=4) skin grafts. The mouse skin transplantation was performed using Balb/c mice as skin donors, B6 Rag1−/− mice as recipients and PBL from B6 for adoptive transfer.

[5] = system: mouse skin or heart transplant; test: Mouse skin or heart transplant models (initial experiments); format: in vivo
[6] = system: mouse mixed lymphocyte reaction; test: Murine mixed lymphocyte reaction; format: cell-based; settings: n=3

For `CC(C)/N=c1\cc2n(-c3ccc(Cl)cc3)c3ccccc3nc-2cc1Nc1ccc(Cl)cc1` [clofazimine, Clofazimine], the IC50 (NFAT luciferase reporter) was 113 ± 30 nM, the “effect on AP-1 luciferase reporter” value (AP-1 luciferase reporter) was “enhanced, rather than inhibited” and the “effect on AP-1 luciferase reporter” value (AP-1 luciferase reporter; listed as Clofazimine) was “significantly enhances”. For the same compound, the “effect on NFAT nuclear translocation” value [1] was “blocked the ionomycin-induced nuclear translocation”, the “effect on NFAT nuclear translocation” value ([1]; listed as Clofazimine) was “inhibits EGFP-NFATc3 nuclear translocation” and the “effect on calcium-dependent NFAT-calcineurin interaction” value [2] was “inhibited the calcium-dependent NFAT-calcineurin interaction in a dose-dependent manner”. For the same compound, the “effect on calcium-dependent NFAT-calcineurin interaction” value ([2]; listed as Clofazimine) was “inhibits the calcium-dependent enhancement”, the “cells with elongated calcium oscillation period” value [3] was “Over 80%” and the “cells with elongated calcium oscillation period” value ([3]; listed as Clofazimine) was “more than 80%”. The “effect on calcium oscillation pattern” value ([3]; low concentration of thapsigargin) was “decreased the amplitude and increased the period”, the “Hill coefficient, mouse Kv1.3” value (mouse Kv1.3) was 0.5 and the IC50 (mouse Kv1.3; +80 mV) was 470 nM. The “block of current, mouse Kv1.1” value (mouse Kv1.1; 10 μM) was “less than 50%”, the IC50 (mouse Kv1.1; inferred from block at 10 μM) was > 10000 nM and the “effect on IKCa1 channel activity” value [4] was “remained unaffected”. The “effect on TRPM4 channel activity” value (TRPM4 channel) was “remained unaffected”, the “subcellular localization relative to Kv1.3” value (Kv1.3) was “same subcellular localization pattern” and the “subcellular localization relative to Kv1.3” value (Kv1.3; listed as Clofazimine) was “colocalizes with Kv1.3”. The “effect on survival of murine skin transplant” value (murine skin transplant) was “no effect on the survival”, the “beneficial effects in mouse skin or heart transplant models” value [5] was “failed to show any beneficial effects” and the “effect on murine mixed lymphocyte reaction” value [6] was “failed to observe a dose-dependent inhibition; also recorded: Biphasic effects”.
